The results in this text go back to article PMC6704710, “Preclinical evaluation of 3D185, a novel potent inhibitor of FGFR1/2/3 and CSF-1R, in FGFR-dependent and macrophage-dominant cancer models” (Journal of Experimental & Clinical Cancer Research : CR, 2019).

What all share (assay): Eurofins kinase panel
Common to all, as to format: biochemical
Common to all, as to settings: read-out: Inhibition rate (%)

For one assay, the target named is T1, DDR2(h) (Homo sapiens, UniProt Q16832).
T1 construct: purchased Eurofins (KinaseProfiler)
T1 sequence (Q16832 22-855): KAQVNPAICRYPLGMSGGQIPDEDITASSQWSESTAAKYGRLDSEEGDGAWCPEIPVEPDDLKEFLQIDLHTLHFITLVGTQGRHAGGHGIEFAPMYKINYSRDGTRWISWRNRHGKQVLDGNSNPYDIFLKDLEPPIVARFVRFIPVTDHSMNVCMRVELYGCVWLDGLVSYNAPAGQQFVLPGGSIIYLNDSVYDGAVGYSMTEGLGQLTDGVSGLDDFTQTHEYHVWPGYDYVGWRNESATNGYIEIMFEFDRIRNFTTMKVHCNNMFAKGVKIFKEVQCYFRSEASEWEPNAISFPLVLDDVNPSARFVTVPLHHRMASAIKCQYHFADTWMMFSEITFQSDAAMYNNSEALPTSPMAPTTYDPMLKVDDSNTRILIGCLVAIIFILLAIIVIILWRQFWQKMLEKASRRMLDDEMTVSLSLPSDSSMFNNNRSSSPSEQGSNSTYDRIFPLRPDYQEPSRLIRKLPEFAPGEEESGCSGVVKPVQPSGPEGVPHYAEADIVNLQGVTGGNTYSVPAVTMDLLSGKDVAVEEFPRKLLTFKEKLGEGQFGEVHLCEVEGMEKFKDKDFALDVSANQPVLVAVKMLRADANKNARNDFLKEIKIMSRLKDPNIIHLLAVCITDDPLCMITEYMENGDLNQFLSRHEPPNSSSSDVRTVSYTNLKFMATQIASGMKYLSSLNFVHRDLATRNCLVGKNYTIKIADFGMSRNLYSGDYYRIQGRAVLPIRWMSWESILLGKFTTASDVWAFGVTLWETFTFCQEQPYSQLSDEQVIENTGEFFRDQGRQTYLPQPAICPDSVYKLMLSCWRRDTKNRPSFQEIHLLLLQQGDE

A further assay has as its target T2, PIP5K1γ(h) (Homo sapiens, UniProt O60331).
T2 construct: purchased Eurofins (KinaseProfiler)

A further assay has as its target T3, Rse(h) (Homo sapiens, UniProt Q06418).
T3 construct: purchased Eurofins (KinaseProfiler)
T3 sequence (Q06418 41-890): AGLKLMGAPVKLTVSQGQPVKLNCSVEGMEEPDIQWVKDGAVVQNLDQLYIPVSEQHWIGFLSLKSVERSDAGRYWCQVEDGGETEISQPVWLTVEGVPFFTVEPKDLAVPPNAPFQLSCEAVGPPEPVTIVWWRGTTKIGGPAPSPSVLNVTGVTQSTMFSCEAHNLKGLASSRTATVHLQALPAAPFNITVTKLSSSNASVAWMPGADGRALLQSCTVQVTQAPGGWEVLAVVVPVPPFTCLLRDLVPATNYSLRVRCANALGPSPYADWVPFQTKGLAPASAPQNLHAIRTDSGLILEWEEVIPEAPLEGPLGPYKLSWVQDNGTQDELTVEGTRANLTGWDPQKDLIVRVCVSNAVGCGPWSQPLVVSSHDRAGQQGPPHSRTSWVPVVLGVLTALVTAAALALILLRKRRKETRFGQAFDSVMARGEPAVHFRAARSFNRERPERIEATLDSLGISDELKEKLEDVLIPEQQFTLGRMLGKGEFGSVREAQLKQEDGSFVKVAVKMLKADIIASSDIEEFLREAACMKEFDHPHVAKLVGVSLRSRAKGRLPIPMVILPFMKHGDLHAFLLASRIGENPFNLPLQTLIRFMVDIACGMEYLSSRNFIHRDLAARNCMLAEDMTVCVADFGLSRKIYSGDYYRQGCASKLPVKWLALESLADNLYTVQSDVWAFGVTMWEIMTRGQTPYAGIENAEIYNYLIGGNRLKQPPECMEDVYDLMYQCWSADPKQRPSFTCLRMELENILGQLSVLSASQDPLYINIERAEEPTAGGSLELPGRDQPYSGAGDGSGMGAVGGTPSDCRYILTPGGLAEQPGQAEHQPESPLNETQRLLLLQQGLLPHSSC

Another assay addresses T4, SRPK1(h) (Homo sapiens, UniProt Q96SB4).
T4 construct: purchased Eurofins (KinaseProfiler)

The next assay deals with T5, TYK2(h) (Homo sapiens, UniProt P29597).
T5 construct: purchased Eurofins (KinaseProfiler)

The target of another assay is T6, GRK3(h) (Homo sapiens, UniProt P35626).
T6 construct: purchased Eurofins (KinaseProfiler)
T6 sequence (P35626 1-688): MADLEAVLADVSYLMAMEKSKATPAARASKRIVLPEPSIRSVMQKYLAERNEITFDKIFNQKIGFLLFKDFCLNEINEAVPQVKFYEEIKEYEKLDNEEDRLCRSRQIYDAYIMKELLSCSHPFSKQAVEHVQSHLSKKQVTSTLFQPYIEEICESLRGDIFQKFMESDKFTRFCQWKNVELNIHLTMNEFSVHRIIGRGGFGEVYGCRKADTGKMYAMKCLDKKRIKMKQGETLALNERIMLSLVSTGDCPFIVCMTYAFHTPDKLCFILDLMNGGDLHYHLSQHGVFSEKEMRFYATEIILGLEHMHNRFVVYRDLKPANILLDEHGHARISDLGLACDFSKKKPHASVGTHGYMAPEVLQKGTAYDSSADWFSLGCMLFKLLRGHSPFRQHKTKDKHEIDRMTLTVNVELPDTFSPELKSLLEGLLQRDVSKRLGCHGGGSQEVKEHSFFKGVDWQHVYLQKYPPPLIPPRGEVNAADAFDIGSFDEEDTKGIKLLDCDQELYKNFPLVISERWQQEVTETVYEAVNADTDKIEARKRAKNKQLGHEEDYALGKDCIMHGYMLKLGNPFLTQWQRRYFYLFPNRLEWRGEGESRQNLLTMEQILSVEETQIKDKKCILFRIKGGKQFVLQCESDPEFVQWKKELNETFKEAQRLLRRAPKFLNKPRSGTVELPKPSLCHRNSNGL

T5 sequence (P29597 whole entry): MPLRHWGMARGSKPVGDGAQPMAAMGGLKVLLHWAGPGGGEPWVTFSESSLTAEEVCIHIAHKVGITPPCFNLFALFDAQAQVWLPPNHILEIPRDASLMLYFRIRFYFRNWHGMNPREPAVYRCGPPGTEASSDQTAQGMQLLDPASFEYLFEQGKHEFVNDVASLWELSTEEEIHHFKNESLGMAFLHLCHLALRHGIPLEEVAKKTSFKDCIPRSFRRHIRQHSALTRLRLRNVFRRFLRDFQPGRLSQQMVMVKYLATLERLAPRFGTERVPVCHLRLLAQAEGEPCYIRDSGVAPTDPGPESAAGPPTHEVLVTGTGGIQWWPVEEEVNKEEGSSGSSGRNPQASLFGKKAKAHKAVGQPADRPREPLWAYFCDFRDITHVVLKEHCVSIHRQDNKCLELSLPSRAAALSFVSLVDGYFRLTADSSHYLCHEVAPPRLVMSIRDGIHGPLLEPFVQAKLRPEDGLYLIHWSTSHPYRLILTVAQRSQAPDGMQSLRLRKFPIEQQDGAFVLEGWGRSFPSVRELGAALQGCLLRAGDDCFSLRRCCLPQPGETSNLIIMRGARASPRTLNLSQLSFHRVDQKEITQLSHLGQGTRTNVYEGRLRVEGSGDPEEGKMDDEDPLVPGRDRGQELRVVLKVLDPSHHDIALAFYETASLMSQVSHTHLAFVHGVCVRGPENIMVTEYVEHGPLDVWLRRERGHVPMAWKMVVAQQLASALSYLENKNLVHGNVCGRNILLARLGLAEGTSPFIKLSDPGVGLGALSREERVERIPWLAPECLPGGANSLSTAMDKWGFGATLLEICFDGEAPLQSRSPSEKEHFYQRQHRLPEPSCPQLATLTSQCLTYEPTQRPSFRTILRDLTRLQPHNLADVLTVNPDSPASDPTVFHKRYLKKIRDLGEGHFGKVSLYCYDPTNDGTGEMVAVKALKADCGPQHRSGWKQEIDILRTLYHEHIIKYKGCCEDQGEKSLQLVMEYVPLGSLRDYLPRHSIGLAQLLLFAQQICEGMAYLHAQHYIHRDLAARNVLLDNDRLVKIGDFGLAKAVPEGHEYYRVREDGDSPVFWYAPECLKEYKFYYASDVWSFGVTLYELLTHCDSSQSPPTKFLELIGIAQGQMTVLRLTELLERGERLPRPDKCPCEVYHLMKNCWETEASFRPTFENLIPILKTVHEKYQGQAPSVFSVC
T4 sequence (Q96SB4 whole entry): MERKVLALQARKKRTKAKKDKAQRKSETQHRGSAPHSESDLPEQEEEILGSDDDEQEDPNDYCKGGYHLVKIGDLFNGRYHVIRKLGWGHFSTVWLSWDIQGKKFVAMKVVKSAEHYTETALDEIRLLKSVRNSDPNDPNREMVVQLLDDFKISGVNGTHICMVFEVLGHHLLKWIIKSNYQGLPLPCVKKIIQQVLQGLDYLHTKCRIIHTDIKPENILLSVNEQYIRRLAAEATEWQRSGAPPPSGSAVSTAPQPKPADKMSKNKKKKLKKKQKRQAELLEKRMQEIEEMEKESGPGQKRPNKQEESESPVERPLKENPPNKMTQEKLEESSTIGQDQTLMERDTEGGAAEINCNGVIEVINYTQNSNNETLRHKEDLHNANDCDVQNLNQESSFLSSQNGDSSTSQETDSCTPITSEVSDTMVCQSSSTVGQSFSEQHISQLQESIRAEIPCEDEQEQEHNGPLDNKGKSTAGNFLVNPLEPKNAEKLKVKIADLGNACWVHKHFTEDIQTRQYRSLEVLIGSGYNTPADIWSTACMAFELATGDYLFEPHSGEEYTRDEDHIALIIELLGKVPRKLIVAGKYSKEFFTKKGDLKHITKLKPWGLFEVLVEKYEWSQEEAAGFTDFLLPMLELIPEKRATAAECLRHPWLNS
T2 sequence (O60331 whole entry): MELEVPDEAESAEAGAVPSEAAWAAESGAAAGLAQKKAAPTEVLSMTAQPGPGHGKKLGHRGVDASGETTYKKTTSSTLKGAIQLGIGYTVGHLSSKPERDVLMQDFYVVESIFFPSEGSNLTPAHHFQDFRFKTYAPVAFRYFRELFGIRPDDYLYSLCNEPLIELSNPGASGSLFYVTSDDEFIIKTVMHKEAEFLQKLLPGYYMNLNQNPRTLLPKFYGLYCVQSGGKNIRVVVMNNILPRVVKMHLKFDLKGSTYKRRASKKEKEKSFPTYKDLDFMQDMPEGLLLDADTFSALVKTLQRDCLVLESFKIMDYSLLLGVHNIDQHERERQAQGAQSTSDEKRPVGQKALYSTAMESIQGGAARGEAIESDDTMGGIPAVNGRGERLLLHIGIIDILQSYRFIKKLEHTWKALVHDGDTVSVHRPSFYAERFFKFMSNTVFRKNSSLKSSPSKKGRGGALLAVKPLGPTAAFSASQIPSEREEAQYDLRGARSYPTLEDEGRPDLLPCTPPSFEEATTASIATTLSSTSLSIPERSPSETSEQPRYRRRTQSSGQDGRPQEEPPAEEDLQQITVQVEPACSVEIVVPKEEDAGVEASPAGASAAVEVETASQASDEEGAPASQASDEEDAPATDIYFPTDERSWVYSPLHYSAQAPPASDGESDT

As usually defined, the inhibition is the change of the read-out against control, counted positive when it falls. Regarding `COc1cc(OC)c(Cl)c(-c2ccc3c(NC(=O)c4ccc(N5CCNC(C)(C)C5)cc4)n[nH]c3n2)c1Cl` [3D185], the inhibition at 0.01 µM came out at 0% at DDR2(h) (10 nM); 6% on PIP5K1γ(h) (10 nM); 5% on Rse(h) (10 nM); 13% on SRPK1(h) (10 nM); 1% on TYK2(h) (10 nM); 6% on GRK3(h) (10 nM). Also, the inhibition at 0.1 µM on DDR2(h) (100 nM) is 7%; on PIP5K1γ(h) (100 nM), 6%; at Rse(h) (100 nM), -2%; at SRPK1(h) (100 nM) it was 9%; at TYK2(h) (100 nM) it was 14%; at GRK3(h) (100 nM), 3%. Further, the inhibition at 1 µM at DDR2(h) (1000 nM) stood at 54%; at PIP5K1γ(h) (1000 nM), 10%; at Rse(h) (1000 nM) it was 16%; on SRPK1(h) (1000 nM), 12%; on TYK2(h) (1000 nM) it was 67%; at GRK3(h) (1000 nM) it was 3%.
